For one test, the target named is T1, α2D-adrenoceptors (Rattus norvegicus, UniProt P22909).
T1 sequence (P22909 1-465): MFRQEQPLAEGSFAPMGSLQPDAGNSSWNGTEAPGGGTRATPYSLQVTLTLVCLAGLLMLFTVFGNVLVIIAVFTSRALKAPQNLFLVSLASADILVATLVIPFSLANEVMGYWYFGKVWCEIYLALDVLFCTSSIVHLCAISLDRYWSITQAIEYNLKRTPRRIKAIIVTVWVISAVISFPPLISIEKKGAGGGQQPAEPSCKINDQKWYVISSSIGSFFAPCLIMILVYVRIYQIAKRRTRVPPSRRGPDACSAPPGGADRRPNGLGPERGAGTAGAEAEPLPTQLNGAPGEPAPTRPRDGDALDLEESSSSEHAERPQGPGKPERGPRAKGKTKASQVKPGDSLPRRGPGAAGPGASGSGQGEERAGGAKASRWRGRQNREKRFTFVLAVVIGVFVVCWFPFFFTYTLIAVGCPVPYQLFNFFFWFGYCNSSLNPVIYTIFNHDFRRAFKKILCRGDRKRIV
The test can be described thus: inhibition of tritiated idazoxan binding to α2D-adrenoceptors in vitro. Details: species or system rat (male Charles River CD, frontal cortical tissue). The following applies: rat frontal cortex; for Ki: [3H]idazoxan 1 nM, 0° C., 75 min; for inhibition at 1 µM: 10^-6 M, [3H]idazoxan, read-out: % displacement at 10^-6 M, α2D.

The target of the next test is T2, α2A-adrenoceptors (Homo sapiens, UniProt P08913).
T2 construct: Human cerebral cortex obtained at post-mortem; from tissue; host or cells: human cerebral cortex, post-mortem
T2 sequence (P08913 1-465): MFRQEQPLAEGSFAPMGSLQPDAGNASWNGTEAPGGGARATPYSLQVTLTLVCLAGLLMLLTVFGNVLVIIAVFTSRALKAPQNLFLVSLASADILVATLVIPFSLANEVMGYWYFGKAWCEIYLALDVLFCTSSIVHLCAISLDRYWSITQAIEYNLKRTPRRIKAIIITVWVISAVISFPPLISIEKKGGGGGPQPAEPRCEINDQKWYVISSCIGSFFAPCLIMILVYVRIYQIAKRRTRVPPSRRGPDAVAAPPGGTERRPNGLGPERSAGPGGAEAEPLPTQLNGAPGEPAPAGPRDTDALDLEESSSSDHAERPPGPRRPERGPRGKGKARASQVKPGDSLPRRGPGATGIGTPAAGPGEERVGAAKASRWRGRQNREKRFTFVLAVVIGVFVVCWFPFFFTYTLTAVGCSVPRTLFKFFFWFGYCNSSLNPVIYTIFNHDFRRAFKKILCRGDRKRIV
Description: inhibition of tritiated RX 821002 binding to α2A-adrenoceptors in vitro. On the set-up: species or system human (cerebral cortex post-mortem). The following applies: human cerebral cortex; for inhibition at 1 µM: 10^-6 M, [3H]RX 821002, read-out: % displacement at 10^-6 M, α2A; for Ki: [3H]RX 821002 0.2 nM, 0° C., 75 min. Put shortly: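 Post-mortem human cerebral cortex membranes (10 mg wet tissue/tube; 50 mM Tris-HCl pH 7.5, ascorbate, EDTA) incubated 75 min at 0 °C with [3H]RX 821002 (0.2 nM as added) and compound; filtration, scintillation counting. Compounds displacing ≥50% at 10^-6 M tested at 10^-11–10^-3 M; IC50 converted to Ki.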

The target in another test is D2 dopamine receptors (Rattus norvegicus, UniProt P61169). Description: inhibition of tritiated (S)-sulpiride binding to D2 dopamine receptors in vitro. On the set-up: species or system rat (male Charles River CD, striatal tissue). Conditions: rat striatum, tritiated (S)-sulpiride 1 nM, 4° C., 40 min.
Sequence of D2 dopamine receptors (P61169 whole entry): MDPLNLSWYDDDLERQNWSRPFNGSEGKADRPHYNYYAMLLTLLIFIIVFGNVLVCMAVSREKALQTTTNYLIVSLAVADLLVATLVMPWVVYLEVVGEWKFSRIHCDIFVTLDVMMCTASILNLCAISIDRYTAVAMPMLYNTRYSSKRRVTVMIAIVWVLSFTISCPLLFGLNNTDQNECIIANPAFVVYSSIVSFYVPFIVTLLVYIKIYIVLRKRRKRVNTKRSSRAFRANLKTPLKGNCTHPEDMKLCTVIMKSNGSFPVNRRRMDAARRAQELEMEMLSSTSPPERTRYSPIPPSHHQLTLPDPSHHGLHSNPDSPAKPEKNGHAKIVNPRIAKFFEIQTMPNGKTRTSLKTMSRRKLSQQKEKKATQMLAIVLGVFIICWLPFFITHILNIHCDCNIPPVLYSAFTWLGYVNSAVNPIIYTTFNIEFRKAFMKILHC
The target in another test is α1-adrenoceptors. The test can be described thus: inhibition of 7-methoxy-[3H]prazosin binding to α1-adrenoceptors in vitro. On the set-up: species or system rat (male Charles River CD, whole cortical tissue). The following applies: rat whole cortex, 30 min; for Ki: 7-methoxy-[3H]prazosin 0.1 nM, 30° C. The gist of the method:
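Male CD rat cortical membranes in 50 mM Tris-HCl pH 7.6 were incubated 30 min at 30 °C with 7-methoxy-[3H]prazosin (0.1 nM as added), with 5 μM phentolamine (as added) defining non-specific binding, then filtered and counted. Compounds were tested at 10^-6 M for % displacement or at 10^-11–10^-3 M for IC50, and Ki was derived from IC50, ligand concentration and KD.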

For the next test, the target named is T3, 5-HT1A receptors (Rattus norvegicus, UniProt P19327).
T3 sequence (P19327 1-422): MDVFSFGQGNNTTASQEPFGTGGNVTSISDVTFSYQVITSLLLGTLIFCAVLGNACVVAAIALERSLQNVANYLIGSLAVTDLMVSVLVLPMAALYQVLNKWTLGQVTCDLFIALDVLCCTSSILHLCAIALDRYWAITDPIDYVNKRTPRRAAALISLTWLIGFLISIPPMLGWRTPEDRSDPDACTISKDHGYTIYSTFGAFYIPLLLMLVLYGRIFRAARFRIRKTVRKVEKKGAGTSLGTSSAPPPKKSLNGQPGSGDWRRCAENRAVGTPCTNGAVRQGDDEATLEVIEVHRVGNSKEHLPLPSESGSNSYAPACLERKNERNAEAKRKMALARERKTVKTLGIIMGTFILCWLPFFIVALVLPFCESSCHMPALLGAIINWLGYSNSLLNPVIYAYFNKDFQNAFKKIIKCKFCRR
Description: inhibition of [3H]8-OH-DPAT binding to 5-HT1A receptors in vitro. The following applies: rat hippocampus; for Ki: [3H]8-OH-DPAT 2 nM, 25° C., 30 min. Details: species or system rat (male Sprague-Dawley, hippocampal tissue).

Description for 5-HT1A receptors: Hippocampal tissue from the brains of male Sprague-Dawley rats (Charles River; weight range 150-250 g) was homogenised in ice-cold 50 mM Tris-HCl buffer (pH 7.7 when measured at 25° C., 1:40 w/v) and centrifuged at 30,000 g at 4° C. for 10 minutes. The pellet was rehomogenised in the same buffer, incubated at 37° C. for 10 minutes and centrifuged at 30,000 g at 4° C. for 10 minutes. The final pellet was resuspended in 50 mM Tris-HCl buffer (pH 7.7) containing 4 mM CaCl2. 0.1% L-ascorbic acid and 10 μM pargyline hydrochloride (equivalent to 6.25 mg wet weight of tissue/ml) and used immediately in the binding assay. Aliquots (400 μl; equivalent to 2.5 mg wet weight of tissue/tube) of this suspension were added to tubes containing the ligand (50 μl; 2 nM) and distilled water (50 μl; total binding) or 5-HT (50 μl; 10 μM; non-specific binding) or test compound (50 μl; at a single concentration of 10^-6 M or at 10 concentrations ranging from 10^-11 -10^-3 M). The ligand was [^3 H]8-hydroxy-2-(dipropylamino)tetralin ([^3 H]8-OH-DPAT) and the mixture was incubated at 25° C. for 30 minutes before the incubation was terminated by rapid filtration.
The filters were washed with ice-cold Tris-HCl buffer and dried. The filters were punched out into vials, scintillation fluid added and radioactivity determined by liquid scintillation counting. The percentage displacement of specific binding of the tritiated ligand was calculated for the single concentration (10^-6 M) of test compound. Displacement curves were then produced for those compounds which displaced ≥50% of specific binding of the tritiated ligand at 10^-6 M using a range of concentrations of the compound. The concentration which gave 50% inhibition of specific binding (IC50) was obtained from the curve. The inhibition coefficient Ki was then calculated using the formula [formula] in which [ligand] is the concentration of the tritiated ligand used and KD is the equilibrium dissociation constant for the ligand.

The term Ki denotes a measure of affinity in units of concentration, obtained from inhibition or displacement. Lower therefore signals a stronger hold on the target. As to `Nc1c(CN2CCN(c3cccc4c3OCCO4)CC2)c(-c2ccccc2)nn1-c1ccccc1` [Example 12, 5-Amino-4-[4-(1,4-benzodioxan-5-yl)piperazin-1-ylmethyl]-1,3-diphenylpyrazole], the Ki is 192 nM at α2D-adrenoceptors, above 500 nM on D2 dopamine receptors, 41 nM on α1-adrenoceptors and 19 nM on 5-HT1A receptors. In addition, the inhibition at 1 µM at α2A-adrenoceptors worked out at 99%.
`CC1(CN2CCN(c3cccc4c3OCCO4)CC2)N=C(c2ccccc2)NC1=O` (stereo not drawn) [Example 38, 4-[4-(1,4-benzodioxan-5-yl)piperazin-1-ylmethyl]-4-methyl-2-phenyl-2-imidazolin-5-one]: the Ki turned out to be 199 nM on α2D-adrenoceptors; 196 nM at α2A-adrenoceptors; 281 nM at D2 dopamine receptors; 473 nM on α1-adrenoceptors; 22 nM at 5-HT1A receptors.
As for `C=CCn1c(N)c(CN2CCN(c3cccc4c3OCCO4)CC2)c(=O)n1-c1ccccc1` [Example 6, 2-Allyl-3-amino-4-[4-(1,4-benzodioxan-5-yl)piperazin-1-ylmethyl]-1-phenyl-3-pyrazolin-5-one], the inhibitory constant (Ki) on α2D-adrenoceptors came out at 111 nM; on D2 dopamine receptors, 139 nM; on α1-adrenoceptors, 45 nM; on 5-HT1A receptors, 22 nM. Moreover, on α2A-adrenoceptors, the inhibition at 1 µM amounted to 86%.
Taken in the same sequence, the figures for `Nc1c(CN2CCN(c3cccc4c3OCCO4)CC2)c(C2CC2)nn1Cc1ccccc1` [Example 26, 5-Amino-4-[4-(1,4-benzodioxan-5-yl)piperazin-1-ylmethyl]-1-benzyl-3-cyclopropylpyrazole] were 8.9 nM, 185 nM, 9.9 nM, 15 nM and 100%.
With `Nc1c(CN2CCN(c3cccc4c3OCCO4)CC2)c(C2CC2)nn1-c1ncccn1` [Example 35, 5-Amino-4-[4-(1,4-benzodioxan-5-yl)piperazin-1-ylmethyl]-3-cyclopropyl-1-(2-pyrimidinyl)pyrazole], the inhibition at 1 µM at α2D-adrenoceptors came out at 96%; at α2A-adrenoceptors, 100%. In addition, the inhibition constant (Ki) at D2 dopamine receptors amounted to 184 nM; on α1-adrenoceptors, 82 nM; on 5-HT1A receptors, 2.3 nM.
On to `COc1ccc(-n2nc(C3CC3)c(CN3CCN(c4cccc5c4OCCO5)CC3)c2N)cc1` [Example 17, 5-Amino-4-[4-(1,4-benzodioxan-5-yl)piperazin-1-ylmethyl]-3-cyclopropyl-1-(4-methoxyphenyl)pyrazole], for which the Ki at α2D-adrenoceptors is 61 nM; at D2 dopamine receptors it was above 500 nM; at α1-adrenoceptors, 27 nM; on 5-HT1A receptors it was 59 nM. Besides, the inhibition at 1 µM at α2A-adrenoceptors amounted to 86%.
The matching figures for `Cn1c(N)c(CN2CCN(c3cccc4ccccc34)CC2)c(=O)n1-c1ccccc1` [Example 4, 3-Amino-2-methyl-4-[4-(1-naphthyl)piperazin-1-ylmethyl]-1-phenyl-3-pyrazolin-5-one]: above 500 nM, 112 nM, 186 nM, 39 nM and 82%.
Taken in the same sequence, the figures for `Cc1ccccc1N1CCN(Cc2c(C3CC3)nn(-c3ccccc3)c2N)CC1` [Example 19, 5-Amino-3-cyclopropyl-4-[4-(2-methylphenyl)piperazin-1-ylmethyl]-1-phenylpyrazole] were 4.9 nM, above 500 nM, 38 nM, 256 nM and 100%.
Regarding `Nc1c(CN2CCN(c3cccc(Cl)c3)CC2)c(C2CC2)nn1-c1ccccc1` [Example 14, 5-Amino-4-[4-(3-chlorophenyl)piperazin-1-ylmethyl]-3-cyclopropyl-1-phenylpyrazole], the inhibition at 1 µM was determined as 81% at α2D-adrenoceptors; 99% at α2A-adrenoceptors; 74% at 5-HT1A receptors (10^-6 M, [3H]8-OH-DPAT, read-out: % displacement at 10^-6 M, 5-HT1A). Also, on D2 dopamine receptors, the inhibition constant Ki is above 500 nM. Further, the “% displacement at 10^-6 M, α1” value with α1-adrenoceptors (10^-6 M, 7-methoxy-[3H]prazosin, 1 µM) was determined as 80%.
Take `Nc1c(CN2CCN(c3cccc4c3OCCO4)CC2)c(C2CC2)nn1-c1ccccc1` [Example 10, 5-amino-4-[4-(1,4-benzodioxan-5-yl)piperazin-1-ylmethyl]-3-cyclopropyl-1-phenylpyrazole]: the inhibitory constant (Ki) at α2D-adrenoceptors was found to be 162 nM; at α2A-adrenoceptors it was 2 nM; on D2 dopamine receptors it was 374 nM; at α1-adrenoceptors it was 31 nM; on 5-HT1A receptors, 25 nM.
As to `N#Cc1ccc(-n2nc(C3CC3)c(CN3CCN(c4cccc5c4OCCO5)CC3)c2N)cc1` [Example 32, 4-{5-Amino-4-[4-(1,4-benzodioxan-5-yl)piperazin-1-ylmethyl]-3-cyclopropylpyrazol-1-yl}benzonitrile], the inhibition at 1 µM turned out to be 92% at α2D-adrenoceptors and 91% on α2A-adrenoceptors. For the same compound, the Ki at D2 dopamine receptors worked out at 320 nM; on α1-adrenoceptors it was 44 nM; at 5-HT1A receptors, 129 nM.
Turning to `CC1(CN2CCN(c3cccc(C(F)(F)F)c3)CC2)N=C(c2ccccc2)NC1=O` (stereo not drawn) [Example 41, 4-Methyl-2-phenyl-4-{4-[3-(trifluoromethyl)phenyl]piperazin-1-ylmethyl}-2-imidazolin-5-one], the inhibition constant Ki on α2D-adrenoceptors is above 500 nM; at D2 dopamine receptors, 129 nM; on α1-adrenoceptors it was above 500 nM; on 5-HT1A receptors it was 224 nM. Besides, the inhibition at 1 µM on α2A-adrenoceptors was found to be 57%.
As to `Cn1nc(C2CCC2)c(CN2CCN(c3cccc4c3OCCO4)CC2)c1N` [Example 30, 5-Amino-4-[4-(1,4-benzodioxan-5-yl)piperazin-1-ylmethyl]-3-cyclobutyl-1-methylpyrazole], the values for the inhibition at 1 µM on α2D-adrenoceptors and on α2A-adrenoceptors were 94% and 99%, respectively. The inhibitory constant (Ki) at D2 dopamine receptors worked out at 265 nM; on α1-adrenoceptors, 64 nM; at 5-HT1A receptors it was 18 nM.
Consider `CC1(CN2CCN(c3cccc(Cl)c3)CC2)N=C(c2ccccc2)NC1=O` (stereo not drawn) [Example 42, 4-[4-(3-Chlorophenyl)piperazin-1-ylmethyl]-4-methyl-2-phenyl-2-imidazolin-5-one], for which the Ki on α2D-adrenoceptors was 226 nM; at D2 dopamine receptors, above 500 nM; at α1-adrenoceptors, above 500 nM; at 5-HT1A receptors it was 213 nM. Moreover, the inhibition at 1 µM at α2A-adrenoceptors is 84%.
Consider `Nc1c(CN2CCN(c3cccc4c3OCCO4)CC2)c(C2CCCC2)nn1-c1ccccc1` [Example 21, 5-Amino-4-[4-(1,4-benzodioxan-5-yl)piperazin-1-ylmethyl]-3-cyclopentyl-1-phenylpyrazole], for which the inhibitory constant (Ki) at α2D-adrenoceptors was 32 nM; at D2 dopamine receptors, 451 nM; on α1-adrenoceptors, 21 nM; at 5-HT1A receptors, 58 nM. For the same compound, the inhibition at 1 µM on α2A-adrenoceptors came to 89%.
